Assay results: patent publication US9624235B2, “Compounds and methods for inhibition of AP endonuclease-1/redox factor-1 (HAPE1) activity” (University of Pittsburgh—Of the Commonwealth System of …, priority 2012, dated 2017)

What was measured:
[1] = test system: T98G cells; assay: Long term (10-day) CyQUANT cytotoxicity assay; type: cell-based, human
Procedure: (§1) Cytotoxic Effects of APE-1 Inhibitors on Cultured Human Glioblastoma (T98G) Cells. Human glioblastoma cells (T98G) were maintained in growth medium as described above. […] The cells were allowed to attach and grow for 24 h, and then treated with serial dilutions of the drug for 72 h. After treatment, viable cells were measured by an MTS assay using the CellTiter 96 AQueous kit (Promega) as per manufacturer's instructions. […] The cells were allowed to attach and grow for 24 h and treated with serial dilutions of the drug for 240 h. After treatment, viable cells were measured using the CyQUANT cell proliferation assay kit (Invitrogen) as per manufacturer's instructions.
(§2) Toxicity. It was assumed that inhibition of APE-1 activity would be lead to toxicity since genetic deletion of the protein is lethal to cells. […] The toxicities were also determined in combination with the DNA minor groove methylating agent, MeLex. MeLex efficiently and selectively generates N3-methyladenine, which is converted into an abasic site by a BER glycosylase and/or hydrolytic depurination. The T98G cell line is relatively resistant to DNA damaging anticancer agents due to expression of multiple drug resistance proteins and O^6-alkylguanine-DNA alkyltransferase. […] A goal of the development of APE-1 inhibitors is to determine if they can be used to enhance the activity of DNA alkylating agents.

[2] = test system: VERA kidney cell line; settings: read-out: IC50 for the toxicity; cited from earlier work
[3] = biological target: APE-1 activity in T98G cell nuclear lysates (Homo sapiens (Human), UniProt P27695); assay: Molecular beacon assay in T98G cell nuclear extracts; type: biochemical
Procedure: Isolation and Assay of APE-1 Protein from Nuclear Extracts of Glioma Cells. Human glioblastoma cells (T98G) were maintained in growth medium, i.e., Eagle's Minimum Essential Medium (EMEM) with 10% fetal bovine serum (FBS), […] gentamycin, 1×MEM non-essential amino acids and 1 mM sodium pyruvate. Cells were harvested by Trypsin-EDTA treatment, washed with 1×PBS and nuclear proteins isolated using the CelLytic NuCLEAR Extraction kit (Sigma-Aldrich) as per manufacturer's instructions. Isolated nuclear proteins were estimated colorimetrically (BCA protein assay) and stored at −80° C. (long term) or at −20° C. during regular use. To assay APE-1 activity in T98G cells, nuclear extracts were serially diluted in 10 mM HEPES, 50 mM KCl, 1 mM DTT, 20% (v/v) glycerol and the activities measured via the molecular beacon assay (as described above). […] EC2 nM of nuclear extracts was incubated with 2 to 500 nM hairpin DNA substrate and the V0 measured for each value of [S]. Finally, the apparent KM* was deduced using the software algorithm in Prism (as described previously), and the KM* was used to determine the apparent Ki*. Inhibition of EC2 nM APE-1 activity by the inhibitors was assayed via the molecular beacon assay (described above).
Inhibition of APE-1 Activity in Nuclear Lysates. The ability of 1-5 and 8 to block APE-1 endonuclease activity in a complex mixture of proteins from T98G cell nuclear lysates was tested using the molecular beacon assay. The APE-1 activity in the lysates was standardized to give ˜90% turnover of 25 nM substrate in 10 min.

[4] = biological target: T1, APE-1 (Homo sapiens (Human), UniProt P27695); assay: Molecular beacon assay for APE-1 endonuclease inhibition; type: biochemical; settings: molecular beacon assay, endonuclease activity; read-out: Ki APE-1 endonuclease inhibition
Source text: Screening Assays for APE1 Inhibition—The initial screen was designed to look at the effect of potential inhibitors on APE1 repair kinetics. The approach can be used as a high throughput screen by choosing a specific timepoint to monitor. The screen utilizes a molecular beacon with a tetrahydrofuran (THF) abasic site within the stem region of a DNA hairpin that has a fluorophore on the 5′-terminus and a quencher on the 3′-terminus (FIG. 2a). […] An example of the molecular beacon screen and the excision assay are shown in FIGS. 2b,c and 2d, respectively.
Molecular Beacon Assay for Screening of APE-1 Inhibitors. A fluorescence-based molecular beacon assay to measure APE-1 protein activity and inhibition was performed as described previously with some modifications. Tang et al. Neuro Oncol. 13, 471-486 (2011) APE-1 (2 nM) in 10 mM HEPES (pH 7.8) 0.5 mM MgCl, 100 mM NaCl, 100 mM KCl, 0.0005% (w/v) BSA, was incubated with 20 nM 5′-(F)-CGACTXTTGAATTGACACGCCATGTCGATCAATTCAATAGTCG-(D)-3′ [X=tetrahydrofuran (THF) abasic site modification; F, 6-carboxyfluorescein (6-FAM); and D, DABCYL] that forms a hairpin with a 15 base pair stem and a 13 base loop. The THF modification is a known substrate for APE-1 excision. APE-1 mediated cleavage of the phosphodiester backbone at the THF-abasic site led to release of the 5′ 6-FAM (fluorophore) containing pentanucleotide, disrupting the Förster Resonance Energy Transfer (FRET) mediated quenching of the 6-FAM by DABCYL in the native hairpin oligomer. Since the signal was generated by continuous liberation of the fluorophore-labeled excision fragment, progress of this reaction could be monitored in real-time using a Cary Eclipse fluorescence spectrometer (Varian, Palo Alto, Calif.) or a Synergy H1 multi-well plate reader (BioTek, Winooski, Vt.). Reactions were optimized to yield ˜90% substrate turnover in 10 min, and fluorescence intensities measured every 12 s at 495 nm excitation and 520 nm emission. Data from the first 1-3 min of the assays (linear phase) were used to determine rate of substrate turnover (V0). The Michaelis constant (KM) was deduced experimentally, by incubating 2 nM APE-1 protein with 2-500 nM hairpin DNA substrate and measuring V0 —the experimentally observed V0 were analyzed as a function of substrate concentration [S] via non-linear regression using Prism (v.4; GraphPad Software, Inc., La Jolla, Calif.) and the KM was calculated as per the algorithm in the software package. To assay inhibition, 2 nM APE-1 protein was pre-incubated with 0.05-10.00 μM of the candidate inhibitors at 25° C. for 60 min, before initiating the excision assay by addition of hairpin DNA substrate. V0 was calculated at various concentrations of inhibitors and represented as inverse function of increasing inhibitor concentration [I]. […] All assays were carried out in three independent sets to obtain mean data and standard error of mean.
(§3) Screening for APE-1 Inhibitors. […] In this assay, the DNA hairpin substrate has a 6-FAM fluorophore on the 5′-terminus, a DABACYL fluorescence quencher on the 3′-terminus and a THF abasic site located 6 base pairs from the 5′-terminus in the stem region (FIG. 6). APE-1 activity is monitored as an increase in fluorescence due to the release of the 5′-(6-FAM)-GCACT fragment as a function of time. […] In this assay, substrate turnover was calculated from relative intensities of cleaved vs. intact oligomers and correlated with inhibitor concentration.

[5] = biological target: T1, APE-1; assay: Gel-based excision assay for APE-1 inhibitors; type: biochemical; settings: APE-1 cleaved fragment vs. full length DNA substrate
Procedure: as §3

[6] = test system: SKOV-3X ovarian tumor cells; settings: read-out: IC50 for cell growth; cited from earlier work
[7] = test system: HEYC-2 ovarian tumor cells; settings: read-out: IC50 for cell growth; cited from earlier work
[8] = biological target: T1, APE-1; assay: Displacement of 4 from APE-1 by E3330 (fluorescence); type: binding; settings: 6 μM 4, 1 μM APE-1
Procedure: Fluorescence and UV Spectrometry Binding Studies. The fluorescence spectra were measured at room temperature on a Cary Eclipse fluorescence spectrometer (Varian, Palo Alto, Calif.). The fluorescence properties of 1 and 4 were measured in 10 mM HEPES, 0.5 mM MgCl2, 100 mM KCl, 100 mM NaCl, 2% glycerol, in absence or presence of wild type (unmodified) hairpin DNA (5′-[…]-3′) or THF-modified hairpin DNA (5′-CGAXTTCGCAGGACCGAATTCG-3′) or APE-1 protein. A solution of 0.5 μM of either DNA sequence was titrated against 1-10 μM ethidium bromide (EtBr) to determine saturation of EtBr by fluorescence (530 nm excitation with 610 nm emission) and the subsequent displacement of EtBr (4 μM) by 1-20 μM 1 or 4 was also assayed. The APE protein-inhibitor binding fluorescence was assayed by titrating 0.1-20 μM of 4 against 1 μM of APE-1 protein.
Interaction of Inhibitors with APE-1 Protein. To establish whether there is a direct interaction between an inhibitor and APE-1, the fluorescence spectra of 4 was determined in the absence and presence of increasing amounts of the protein.

[9] = test system: T98G cells; assay: Potentiation of MeLex cytotoxicity, long term (10 d) CyQUANT assay; type: cell-based, human; settings: LD10 concentration
Procedure: (§4) Cytotoxic Potentiation of Various DNA Damaging Agents. T98G cells maintained in growth medium were resuspended in fresh growth medium and seeded into 96-well plates at 2000 cells/well (short term cytotoxicity) or 100 cells/well (long term cytotoxicity) as described in the previous section. After 24 h, the cells were treated with serial dilutions of various DNA damaging drugs in absence or presence of APE-1 inhibitors. At the end of the treatment period, cell survival was assayed using CellTiter 96 AQueous or CyQUANT kits for the short- and long-term studies respectively.
as §2

[10] = test system: T98G cells; assay: Potentiation of MeLex cytotoxicity, short term (72 h) MTS assay; type: cell-based, human; settings: 72 h MTS assay
Procedure: as §4, §2

[11] = test system: aldehyde reactive sites in genomic DNA from T98G cells; type: cell-based, human
Procedure: Quantification of Abasic Sites. T98G cells maintained in growth medium, were harvested by Trypsin-EDTA treatment, resuspended in fresh growth medium at a density of 2.5×10^5 cells mL^−1, and 2 mL (5×10^5 cells) of this suspension was seeded into the wells of a sterile 6-well tissue culture plate. Cells were allowed to grow for 24 h, treated with the various compounds for different time points and/or at different concentrations. At the end of each treatment, adherent cells were harvested by trypsin-EDTA treatment and pooled with live and dead cells in culture supernatant. Pooled cells in suspension were pelleted by centrifugation, washed with 1×PBS and genomic DNA was isolated using the DNAzol reagent (Invitrogen). DNA in solution was quantified by UV absorbance (λ260 nm) using a Synergy H1 multiwell plate reader (BioTek, Winooski, Vt.). Abasic sites in purified DNA were then reacted with the biotin-conjugated aldehyde reactive probe (ARP), immobilized onto 96-well ELISA plates, and detected using horseradish peroxidase (HRP)-conjugated streptavidin using a colorimetric substrate as per manufacturer's instructions (Dojindo Molecular Technologies, Rockville, Md.).
The biotin tagged ARS are quantified using an avidin-biotin assay, followed by colorimetric detection with horseradish peroxidase conjugated to avidin.

[12] = test system: T98G cells; assay: Short term (72 h) MTS cytotoxicity assay; type: cell-based, human; settings: 72 h MTS assay
Procedure: as §1, §2

[13] = test system: T98G cells; assay: MTT toxicity assay in T98G glioma cells; type: cell-based, human; settings: FIG. 3(a)
Procedure: FIGS. 3(a)-(b). […] (b) Toxicity of MeLex (efficiently generates 3-mA) in the absence (o) and presence of 50 nM ( ) or 250 nM (∇) inhibitor 4.
Toxicity of APE1 Inhibitors in T98G Glioma Cells—A short term (MTT assay) and long term (clonogenic assay) dose response toxicity for the inhibitors was performed in T98G glioma cells in the absence of a DNA alkylating agent. This cell line was selected because it is quite resistant to many DNA alkylating agents; therefore, it represents a good model to test the potential effect of APE1 inhibition on the toxicity of DNA damaging compounds.

T1 sequence (P27695 whole entry): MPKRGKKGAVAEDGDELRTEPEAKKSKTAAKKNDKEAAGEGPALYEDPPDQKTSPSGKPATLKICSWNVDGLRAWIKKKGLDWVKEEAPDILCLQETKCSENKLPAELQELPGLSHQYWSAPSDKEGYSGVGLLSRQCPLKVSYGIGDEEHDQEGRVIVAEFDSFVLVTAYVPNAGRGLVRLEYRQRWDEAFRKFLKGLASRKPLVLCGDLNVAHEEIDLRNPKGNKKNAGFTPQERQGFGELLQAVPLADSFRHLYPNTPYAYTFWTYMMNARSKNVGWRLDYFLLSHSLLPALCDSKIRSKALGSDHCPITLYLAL
Chain of APE-1 activity in T98G cell nuclear lysates (P27695 whole entry, stated change not applied): as the sequence (P27695 whole entry) above

In the case of `Cc1cc(N/N=C/c2ccc3c(c2)OCO3)c2cc3c(cc2n1)OCO3` [Compound 3], the IC50 ([1]; Homo sapiens, T98G, assay not stated, read-out: toxicity observed in the glioma T98G line) is given as 540 nM, the IC50 [2] is given as 630 nM and the Ki [3] is given as 280 nM. For the same molecule, the Ki [4] was 190 nM and the IC50 [5] was 2900 nM.

In the case of `CCCCCCCCC/C(=C\C1=C(C)C(=O)C(OC)=C(OC)C1=O)C(=O)O` [Compound E3330], the LD10 concentration ([1]; long term assay) is listed as 14.80 µM, the IC50 [6] is listed as roughly 35000 nM and the IC50 [7] is listed as roughly 35000 nM. The “E3330 concentration for approximately 50% decrease in the fluorescence of 4” value [8] was “approximately 12 μM”, the “potentiating the toxicity of MeLex” value [9] was “little or no contribution” and the “LD50 of MeLex in the presence of LD10 concentration of inhibitor” value [10] was 128 µM. For the same molecule, the “effect on ARS” value ([11]; 0.25 μM compound alone) was “returned to control levels by 18 h”, the “level of ARS in combination with MeLex” value ([11]; 80 μM MeLex + 0.25 μM compound, after 6 h) was “dropped off” and the LD10 concentration [12] was 6.9 µM.

With `CCn1c2ccccc2c2cc(/C=N/Nc3cc(C)nc4cc5c(cc34)OCO5)ccc21` [Inhibitor-1] the LD50 [13] was 960 nM.
